According to ChEMBL document CHEMBL1201862, “PubChem BioAssay data set” (2004):
Active and inactive are the calls of the source.

Assays:
[1] = molecular target: Adenosylmethionine-8-amino-7-oxononanoate aminotransferase (Mycobacterium tuberculosis, UniProt P9WQ81); test: Mycobacterium tuberculosis BioA enzyme inhibitor Measured in Biochemical System Using Plate Reader - 2163-02_Inhibitor_Dose_CherryPick_Activity.; type: functional, Mycobacterium tuberculosis UT205
[2] = molecular target: T1, Sentrin-specific protease 6 (Homo sapiens, UniProt Q9GZR1); type: functional;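 note: Luminescence-based dose-response confirmatory assay of SENP6 inhibition, following up an ultra-high-throughput screen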
T1 sequence (Q9GZR1 whole entry): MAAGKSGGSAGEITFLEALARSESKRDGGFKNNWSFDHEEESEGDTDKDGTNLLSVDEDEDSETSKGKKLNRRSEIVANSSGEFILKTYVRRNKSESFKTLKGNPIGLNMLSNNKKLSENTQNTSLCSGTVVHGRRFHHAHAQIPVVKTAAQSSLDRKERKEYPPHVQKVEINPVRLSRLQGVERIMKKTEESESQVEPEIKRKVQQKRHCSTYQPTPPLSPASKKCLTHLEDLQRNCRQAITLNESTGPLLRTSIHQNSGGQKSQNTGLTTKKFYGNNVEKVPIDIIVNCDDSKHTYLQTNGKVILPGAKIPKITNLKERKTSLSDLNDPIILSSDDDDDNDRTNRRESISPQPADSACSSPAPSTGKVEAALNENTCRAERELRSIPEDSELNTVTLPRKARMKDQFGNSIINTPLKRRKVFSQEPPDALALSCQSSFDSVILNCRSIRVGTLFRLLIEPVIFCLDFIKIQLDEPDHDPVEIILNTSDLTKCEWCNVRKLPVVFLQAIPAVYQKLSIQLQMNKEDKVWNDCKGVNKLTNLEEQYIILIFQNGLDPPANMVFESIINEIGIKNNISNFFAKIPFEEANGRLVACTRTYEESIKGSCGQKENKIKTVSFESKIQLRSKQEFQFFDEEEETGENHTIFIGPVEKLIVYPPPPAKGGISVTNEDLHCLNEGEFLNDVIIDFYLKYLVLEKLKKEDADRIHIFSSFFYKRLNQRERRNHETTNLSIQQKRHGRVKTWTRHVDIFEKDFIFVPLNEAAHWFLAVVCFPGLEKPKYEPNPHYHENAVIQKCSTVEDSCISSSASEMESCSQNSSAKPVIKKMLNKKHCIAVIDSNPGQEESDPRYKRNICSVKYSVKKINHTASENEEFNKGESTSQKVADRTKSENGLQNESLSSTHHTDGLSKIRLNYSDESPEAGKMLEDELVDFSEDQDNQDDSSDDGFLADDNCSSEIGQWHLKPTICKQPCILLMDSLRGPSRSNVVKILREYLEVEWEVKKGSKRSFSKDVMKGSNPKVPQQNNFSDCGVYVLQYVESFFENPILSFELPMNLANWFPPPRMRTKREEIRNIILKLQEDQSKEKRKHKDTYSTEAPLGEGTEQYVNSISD

[3] = molecular target: T2, Caspase-3 (Homo sapiens, UniProt P42574); type: functional;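 note: Dose-response selectivity test against caspase-3 for candidate inhibitors of sentrin-specific proteases (SENPs)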
T2 sequence (P42574 whole entry): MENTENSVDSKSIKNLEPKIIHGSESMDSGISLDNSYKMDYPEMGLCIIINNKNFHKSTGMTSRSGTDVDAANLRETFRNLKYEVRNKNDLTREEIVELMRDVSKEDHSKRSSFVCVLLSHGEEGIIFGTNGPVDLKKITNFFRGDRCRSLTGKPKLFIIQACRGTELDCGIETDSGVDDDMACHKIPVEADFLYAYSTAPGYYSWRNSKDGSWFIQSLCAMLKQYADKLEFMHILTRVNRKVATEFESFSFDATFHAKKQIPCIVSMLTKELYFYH

[4] = test system: HEK293; test: inhibitors of LMP1-driven NF-kB reporter, dose response, cell-based, HEK293, luciferase, cherry-pick (AID 588343); type: functional; settings: Homo sapiens
[5] = molecular target: T3, Sentrin-specific protease 7 (Homo sapiens, UniProt Q9BQF6); type: functional;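 note: Luminescence-based dose-response confirmation of ultra-high-throughput screening hits, measuring inhibition of SENP7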
T3 sequence (Q9BQF6 whole entry): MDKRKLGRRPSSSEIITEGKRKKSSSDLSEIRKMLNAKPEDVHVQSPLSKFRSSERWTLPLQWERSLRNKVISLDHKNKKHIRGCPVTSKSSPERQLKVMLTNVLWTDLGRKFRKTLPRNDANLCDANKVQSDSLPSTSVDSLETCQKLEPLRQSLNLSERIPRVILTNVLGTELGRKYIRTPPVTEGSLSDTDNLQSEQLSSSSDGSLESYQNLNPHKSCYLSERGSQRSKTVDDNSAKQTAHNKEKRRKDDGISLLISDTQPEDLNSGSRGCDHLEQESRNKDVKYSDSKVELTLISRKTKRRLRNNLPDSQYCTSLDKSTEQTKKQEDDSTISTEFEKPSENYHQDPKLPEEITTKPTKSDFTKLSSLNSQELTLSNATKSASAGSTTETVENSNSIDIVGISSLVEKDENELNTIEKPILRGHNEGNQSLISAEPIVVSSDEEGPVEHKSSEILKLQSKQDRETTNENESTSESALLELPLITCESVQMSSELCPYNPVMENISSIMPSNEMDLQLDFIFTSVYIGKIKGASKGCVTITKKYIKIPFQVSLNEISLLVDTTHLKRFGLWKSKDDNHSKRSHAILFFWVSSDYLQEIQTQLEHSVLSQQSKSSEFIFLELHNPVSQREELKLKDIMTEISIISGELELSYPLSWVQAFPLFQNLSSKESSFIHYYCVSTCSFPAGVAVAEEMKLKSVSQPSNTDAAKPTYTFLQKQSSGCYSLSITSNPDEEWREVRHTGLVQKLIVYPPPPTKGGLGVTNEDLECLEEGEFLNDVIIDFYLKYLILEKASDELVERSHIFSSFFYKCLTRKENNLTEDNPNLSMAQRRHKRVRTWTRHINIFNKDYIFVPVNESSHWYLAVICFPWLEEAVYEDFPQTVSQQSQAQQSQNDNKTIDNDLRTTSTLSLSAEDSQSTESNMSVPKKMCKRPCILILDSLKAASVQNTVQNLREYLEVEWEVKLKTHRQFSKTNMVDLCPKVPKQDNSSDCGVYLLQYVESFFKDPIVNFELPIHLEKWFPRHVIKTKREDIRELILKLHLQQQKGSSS

[6] = molecular target: T4, Sentrin-specific protease 8 (Homo sapiens, UniProt Q96LD8); type: functional;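 note: luminescence read-out of SENP8 inhibition, dose-response confirmation following an ultra-high-throughput screen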
T4 sequence (Q96LD8 whole entry): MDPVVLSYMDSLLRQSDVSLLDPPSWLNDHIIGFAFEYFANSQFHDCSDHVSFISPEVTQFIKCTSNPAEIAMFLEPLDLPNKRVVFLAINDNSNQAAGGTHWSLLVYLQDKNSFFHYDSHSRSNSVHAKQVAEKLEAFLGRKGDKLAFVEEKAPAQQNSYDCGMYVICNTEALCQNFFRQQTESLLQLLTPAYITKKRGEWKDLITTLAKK

[7] = MC4R antagonists, dose response, counter-screen for LGR2 antagonist project, cell-based, plate reader, cherry pick (AID 743444); type: functional;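 note: transfected HEK 293 cells stimulated with alpha-MSH peptide; potency of inhibitors of the alpha-MSH evoked signal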
[8] = inhibitors of SNCA 5'UTR-driven reporter translation, confirmation, H4 neuroglioma cells, luminescence (AID 1988); type: functional, cell-based
[9] = LGR2 antagonists, dose response, cell-based, HEK293, CRE-luciferase reporter, cherry pick, set 2 (AID 743343); type: functional;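 note: transfected cells were stimulated with diluted bursicon conditioned medium after compound addition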
[10] = Luminescence Cell-Based Dose Response HTS to Identify Inhibitors of 5'UTR Stem-Loop Driven Prion Protein mRNA Translation in H4 Neuroglioblastoma Cells. [Related pubchem assays: 1827 (Project Summary), 1813 (Primary HTS)]; type: functional
[11] = HEK293 cell cytotoxicity, dose response, cytotoxicity control, plate reader, cherry-picked samples (AID 743446); type: functional, cell-based
[12] = A549 cell cytotoxicity, dose response, cytotoxicity control, plate reader, cherry-pick, antagonist series (AID 743412); type: functional, cell-based
[13] = HepG2 cell cytotoxicity, dose response, cytotoxicity control, plate reader, cherry-pick, antagonist series (AID 743416); type: functional, cell-based
[14] = molecular target: Protein Wnt-3a (Mus musculus, UniProt P27467); test: Wnt3a-driven reporter signaling inhibition, dose response, selectivity assay for Gli-SUFU antagonist project, Wnt-LIGHT cells, luminescence (AID 651570); type: functional; settings: read-out: IC50_Mean;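 note: Wnt-LIGHT reporter cells stimulated with conditioned medium from Wnt3a-producing cells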
Chain of Protein Wnt-3a (P27467 whole entry): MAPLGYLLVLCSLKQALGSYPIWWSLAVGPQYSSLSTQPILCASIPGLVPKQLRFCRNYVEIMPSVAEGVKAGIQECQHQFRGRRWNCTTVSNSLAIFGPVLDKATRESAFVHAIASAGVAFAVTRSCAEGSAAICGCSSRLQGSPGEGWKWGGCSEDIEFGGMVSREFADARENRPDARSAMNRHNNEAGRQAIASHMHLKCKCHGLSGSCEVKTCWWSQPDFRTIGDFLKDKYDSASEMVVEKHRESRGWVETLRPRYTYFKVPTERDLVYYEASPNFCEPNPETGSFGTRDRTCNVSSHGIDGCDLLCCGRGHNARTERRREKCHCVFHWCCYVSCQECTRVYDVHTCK

[15] = Shn3 3'UTR reporter inhibitors, dose response, cell-based, Clone20 osteoblasts, firefly luciferase, cherry-picked (AID 624132); type: functional;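 note: firefly luciferase luminescence from reporter carrying the Shn3 3'UTR in osteoblasts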
[16] = control 3'UTR Renilla luciferase suppression, dose response, counter-screen for Shn3 inhibitor project, cell-based, Clone20-Shn3RL, cherry-picked (AID 624133); type: functional
[17] = HepG2 cell cytotoxicity, dose response, cytotoxicity control for Shn3 inhibitor project, CellTiter-Glo, cherry-picked (AID 624134); type: functional, cell-based
[18] = test system: INS1; test: beta cell apoptosis inhibitors, cytokine rescue, dose response, luminescence, retest (AID 449756); type: functional, cell-based; settings: Rattus norvegicus;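 note: cell death triggered by IL-1 beta plus TNF-alpha plus IFN-gamma mixture; protective hits raise ATP signal compared with cytokine alone wells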
[19] = molecular target: T5, Probable nicotinate-nucleotide adenylyltransferase (Staphylococcus aureus (strain N315), UniProt P65502); type: functional, Staphylococcus aureus subsp. aureus N315; settings: read-out: IC50_Mean;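 for IC50 Mean: confirmatory dose-response retesting of NadD inhibitor hits first found in an ultra-high-throughput screen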
T5 sequence (P65502 whole entry): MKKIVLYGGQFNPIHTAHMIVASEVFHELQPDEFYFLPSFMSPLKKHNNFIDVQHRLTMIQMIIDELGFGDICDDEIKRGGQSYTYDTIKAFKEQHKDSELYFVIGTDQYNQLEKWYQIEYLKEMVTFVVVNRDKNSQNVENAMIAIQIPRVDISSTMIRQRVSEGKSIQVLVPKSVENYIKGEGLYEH

[20] = molecular target: T5, Probable nicotinate-nucleotide adenylyltransferase; type: functional, Staphylococcus aureus subsp. aureus N315
[21] = test system: BJ; test: cytotoxicity toward BJ-TERT-LT-ST fibroblasts, dose response, cell-based, RAS-independent, luminescence (AID 1935); type: functional; settings: Homo sapiens;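 note: BJ fibroblasts immortalized with TERT plus LT and ST oncogenes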
[22] = molecular target: T6, Microphthalmia-associated transcription factor (Homo sapiens, UniProt O75030); test: TRPM1 promoter luciferase signal decrease, dose response, MITF inhibitor project, cell-based, SK-MEL-5, cherry-picked, set 3 (AID 493073); type: functional
T6 sequence (O75030 whole entry): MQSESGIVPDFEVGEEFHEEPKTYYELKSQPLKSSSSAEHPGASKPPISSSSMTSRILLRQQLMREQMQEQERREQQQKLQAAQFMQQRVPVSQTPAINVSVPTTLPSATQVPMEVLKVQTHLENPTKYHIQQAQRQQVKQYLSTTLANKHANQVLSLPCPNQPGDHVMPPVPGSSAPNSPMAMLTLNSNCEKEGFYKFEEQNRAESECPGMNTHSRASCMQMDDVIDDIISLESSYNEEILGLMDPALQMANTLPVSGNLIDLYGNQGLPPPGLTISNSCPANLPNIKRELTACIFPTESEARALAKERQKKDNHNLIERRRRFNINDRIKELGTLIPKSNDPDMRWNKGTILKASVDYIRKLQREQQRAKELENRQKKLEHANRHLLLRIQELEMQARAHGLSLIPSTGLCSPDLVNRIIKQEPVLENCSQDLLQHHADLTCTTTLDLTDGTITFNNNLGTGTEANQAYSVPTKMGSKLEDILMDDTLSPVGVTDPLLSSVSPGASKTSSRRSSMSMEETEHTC

[23] = molecular target: T7, Heat shock factor protein 1 (Mus musculus, UniProt P38532); test: HSF1 potentiators in luciferase reporter cells, confirmation, cell-based, NIH3T3, luminescence, dose retest (AID 435004); type: functional;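 note: stress induced by proteasome inhibitor MG132 added 30 min after compound; luciferase reporter driven by HSF1 response element in NIH3T3 cells; actives raise luminescence as potentiators of the MG132 stress response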
T7 sequence (P38532 whole entry): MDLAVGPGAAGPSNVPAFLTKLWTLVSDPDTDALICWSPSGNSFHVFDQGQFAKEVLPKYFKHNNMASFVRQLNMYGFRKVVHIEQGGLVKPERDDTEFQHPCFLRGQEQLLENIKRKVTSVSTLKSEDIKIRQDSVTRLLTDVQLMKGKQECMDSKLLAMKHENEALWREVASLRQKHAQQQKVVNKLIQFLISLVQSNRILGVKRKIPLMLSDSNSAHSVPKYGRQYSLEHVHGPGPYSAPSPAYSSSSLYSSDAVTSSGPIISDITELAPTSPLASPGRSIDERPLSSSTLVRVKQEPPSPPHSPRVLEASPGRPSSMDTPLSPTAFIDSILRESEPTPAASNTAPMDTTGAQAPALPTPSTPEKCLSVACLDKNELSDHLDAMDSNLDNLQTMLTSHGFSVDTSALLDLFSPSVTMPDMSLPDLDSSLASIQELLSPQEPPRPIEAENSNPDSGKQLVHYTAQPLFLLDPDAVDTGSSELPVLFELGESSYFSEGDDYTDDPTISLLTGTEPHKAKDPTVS

[24] = Fluorescence-based cell-based high throughput dose response assay for inhibitors of the interaction of nucleotide-binding oligomerization domain containing 2 (NOD2) and the receptor-interacting serine-threonine kinase 2 (RIPK2).; type: functional; settings: Homo sapiens
[25] = molecular target: Heat shock protein HSP 90-alpha (Homo sapiens, UniProt P07900); type: functional, organism-based
[26] = test system: BJ; test: cells; type: functional, cell-based; settings: Homo sapiens
[27] = cytotoxicity toward DRD oncogenic fibroblasts, dose response, cell-based, non-viral oncogenic, luminescence (AID 1934); type: functional; settings: Homo sapiens
[28] = test system: BJ; test: cytotoxicity toward BJ-TERT fibroblasts, dose response, cell-based, RAS-independent, luminescence (AID 1933); type: functional; settings: Homo sapiens
[29] = molecular target: Photoreceptor-specific nuclear receptor (Homo sapiens, UniProt Q9Y5X4); type: functional, cell-based;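 note: CHO-S cells with Gal4-NCOR and VP16-NR2E3 two-hybrid luciferase reporter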
Chain of Photoreceptor-specific nuclear receptor (Q9Y5X4 whole entry, the tested form may be a part): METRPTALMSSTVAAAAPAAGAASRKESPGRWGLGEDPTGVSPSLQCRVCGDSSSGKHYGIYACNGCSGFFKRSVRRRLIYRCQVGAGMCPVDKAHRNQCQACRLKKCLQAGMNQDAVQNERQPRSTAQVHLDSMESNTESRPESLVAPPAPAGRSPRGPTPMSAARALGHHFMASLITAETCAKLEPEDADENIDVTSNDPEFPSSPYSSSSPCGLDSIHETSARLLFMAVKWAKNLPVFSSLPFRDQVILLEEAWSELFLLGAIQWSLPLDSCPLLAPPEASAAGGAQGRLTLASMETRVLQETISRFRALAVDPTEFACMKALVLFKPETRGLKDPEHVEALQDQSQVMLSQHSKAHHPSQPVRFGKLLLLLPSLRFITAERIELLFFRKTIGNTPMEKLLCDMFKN

Chain of Adenosylmethionine-8-amino-7-oxononanoate aminotransferase (P9WQ81 whole entry): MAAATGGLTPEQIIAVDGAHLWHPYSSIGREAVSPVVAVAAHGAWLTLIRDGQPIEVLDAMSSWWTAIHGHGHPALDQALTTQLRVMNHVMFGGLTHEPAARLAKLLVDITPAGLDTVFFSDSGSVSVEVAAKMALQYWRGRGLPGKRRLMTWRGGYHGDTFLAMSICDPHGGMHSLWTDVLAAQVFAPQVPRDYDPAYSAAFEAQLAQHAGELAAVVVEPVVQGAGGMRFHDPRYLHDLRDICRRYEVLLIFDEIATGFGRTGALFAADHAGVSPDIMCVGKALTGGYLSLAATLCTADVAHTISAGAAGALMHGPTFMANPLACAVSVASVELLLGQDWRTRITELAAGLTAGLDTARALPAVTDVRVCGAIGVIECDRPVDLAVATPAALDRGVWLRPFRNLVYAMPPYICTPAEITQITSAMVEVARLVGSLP

CC(CNC(=O)CCCn1ncn2c(cc3occc32)c1=O)c1ccccc1 (stereo not drawn)
AC50 [1]: 0.785 µM (active)

Cc1ccc(/C=C/c2nc(O)c3ccccc3n2)cc1
IC50 [2]: 0.961 µM (active) | IC50 [3]: 0.999 µM (active) | AC50 [4]: 1.88 µM (active) | IC50 [5]: 0.788 µM (active) | IC50 [6]: 1.5 µM (active) | AC50 [7]: 2.45 µM (active) | EC50 [8]: 4.45 µM (inconclusive) | AC50 [9]: 2.73 µM (active) | EC50 [10]: 14.8 µM (active) | AC50 [11]: > 52 µM (inactive) | AC50 [12]: > 52 µM (inactive) | AC50 [13]: > 52 µM (inactive)

CC1CCC(NC(=O)c2cccc(S(=O)(=O)N3CCN(c4ccccc4)CC3)c2)CC1 (stereo not drawn)
IC50 [14]: 28.3 µM (inactive)

CC(CC(=O)N1CCN(c2cccc(Cl)c2)CC1)S(=O)(=O)c1ccc2c(c1)NC(=O)CO2 (stereo not drawn)
IC50 [14]: 15.1 µM (active) | AC50 [15]: 3.99 µM (active) | AC50 [16]: 5.37 µM (active) | AC50 [17]: 34.7 µM (active) | AC50 [18]: 5.65 µM (active)

CCC(C)n1c(=O)c(C(=O)Nc2ccccc2S(N)(=O)=O)c(O)c2ccccc21 (stereo not drawn)
IC50 [19]: 41.1 µM (active) | IC50 [20]: 5.92 µM (active)

COc1cc2c(cc1/C=C/[N+](=O)[O-])OCO2
EC50 [21]: 8.52 µM (inconclusive) | AC50 [22]: 8.98 µM (active) | EC50 [23]: 8.55 µM (active) | IC50 [24]: 3.19 µM (active) | AC50 [25]: 4.25 µM (active) | EC50 [26]: 11.5 µM (inconclusive) | EC50 [27]: 6.07 µM (active) | EC50 [28]: 8.89 µM (inconclusive)

COc1ccc(C)cc1NC(=O)c1nnn(Cc2cccc(C(F)(F)F)c2)c1N
IC50 [29]: 39.8 µM (inactive)

Cc1ccc(-c2nn(CCC(=O)Nc3cccnc3)c(=O)c3ccccc23)cc1
AC50 [1]: 0.148 µM (active)

O=C(CSc1nnc(SCc2ccccc2)s1)N/N=C/C=C/c1ccco1
IC50 [19]: 27.6 µM (active) | IC50 [20]: 12 µM (active)
